This note sets out measurements from article PMC12858405, “Ideal efficacy photoswitching for chromocontrol of TRPC4/5 channel functions in live tissues” (Nature Chemical Biology, 2026).

The assay has as its target T1, TRPC5-V579I-SYFP2 (Homo sapiens, UniProt Q9UL62, V579I).
T1 construct: expressed in transfected cells; host or cells: HEK 293 (ATCC CRL 1573), transiently transfected (jetPRIME)
T1 sequence (Q9UL62 1-973 V579I): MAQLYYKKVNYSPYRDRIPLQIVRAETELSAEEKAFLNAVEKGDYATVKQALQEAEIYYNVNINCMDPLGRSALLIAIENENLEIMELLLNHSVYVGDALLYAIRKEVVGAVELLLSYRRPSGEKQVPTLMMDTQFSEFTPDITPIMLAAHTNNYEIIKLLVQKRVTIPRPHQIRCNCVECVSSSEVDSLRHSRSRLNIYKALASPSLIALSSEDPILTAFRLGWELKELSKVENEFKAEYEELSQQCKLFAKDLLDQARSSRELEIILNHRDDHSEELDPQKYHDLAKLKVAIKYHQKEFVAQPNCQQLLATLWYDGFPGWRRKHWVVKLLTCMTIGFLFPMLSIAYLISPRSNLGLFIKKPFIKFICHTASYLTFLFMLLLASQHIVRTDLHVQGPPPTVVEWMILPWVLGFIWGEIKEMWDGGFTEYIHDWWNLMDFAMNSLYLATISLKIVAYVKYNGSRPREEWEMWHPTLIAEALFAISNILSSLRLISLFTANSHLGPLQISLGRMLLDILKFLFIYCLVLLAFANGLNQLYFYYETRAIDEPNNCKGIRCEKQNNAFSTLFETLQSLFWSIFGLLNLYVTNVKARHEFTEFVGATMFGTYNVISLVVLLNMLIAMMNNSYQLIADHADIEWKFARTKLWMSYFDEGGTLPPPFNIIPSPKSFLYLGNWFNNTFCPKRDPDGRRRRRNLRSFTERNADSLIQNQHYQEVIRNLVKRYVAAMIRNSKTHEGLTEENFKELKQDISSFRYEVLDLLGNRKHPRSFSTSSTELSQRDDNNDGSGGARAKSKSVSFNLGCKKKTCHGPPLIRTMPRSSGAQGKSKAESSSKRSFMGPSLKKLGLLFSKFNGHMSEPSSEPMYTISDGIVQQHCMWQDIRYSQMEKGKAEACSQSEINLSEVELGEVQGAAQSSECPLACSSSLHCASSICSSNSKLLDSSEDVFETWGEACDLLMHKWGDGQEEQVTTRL
Nature of the assay: Fura-2 [Ca2+]i recordings, HEK 293 transiently expressing TRPC5-V579I-SYFP2. The class given is cell-based. Conditions: 10-1000 nM; compound plate illuminated at 380 nm; EA 100 nM as maximum. From the text: Müller, Niemeyer, et al., Schaefer & Thorn-Seshold 2025: Ideal Efficacy Photoswitching of TRPC4/5 in Tissue […]
1.4.3 Note on TRPC4 / TRPC5 Sequence Alignment
The key contact residues of interest in the ligand binding site are highly conserved between TRPC4 and TRPC5. The relevant sequences in the site are: […]
1.4.4 Differences and selectivity between TRPC5 and TRPC4?
AM237 activates TRPC5 but inhibits EA mediated activation of TRPC4; Pico145 inhibits both TRPC4 and TRPC5. Thus, somewhat naively, it could be argued that it is the para substituent here which affects both the efficacy mode and the selectivity for TRPC4 and/or TRPC5.
Intriguingly, Z-AzPico activates TRPC4 and TRPC5 with low nanomolar potency whereas Z-AzHC only activates TRPC5 but not TRPC4. Therefore, the meta substituent is now responsible for the selectivity in this case. The cryo-EM structures of Pico145 and HC-070 in complex with TRPC5 indicated the same binding site but the southern phenyl ring bearing the OCF3/Cl group is flipped and pointing in opposite directions.
Z isomers, i.e. Z-buried vs. E-projected. Additionally, both E-AzPico and E-AzHC inhibit EA […]
Intracellular calcium ([Ca2+]i) was measured using the ratiometric Ca2+ dye Fura-2. […]

`Cn1c(=O)n(CCCO)c(=O)c2c1nc(Oc1ccc(Cl)c(OC(F)(F)F)c1)n2Cc1ccc(Cl)cc1` [AM237, reference compound]: the “Effect on [Ca2+]i, TRPC5V579I” value is on record as “partial agonists”.
Consider `Cn1c(=O)n(CCCO)c(=O)c2c1nc(Oc1ccc(/N=N\c3ccccc3)c(Cl)c1)n2Cc1ccc(Cl)cc1` [Z*-AzHC], for which the “Effect on [Ca2+]i, TRPC5V579I” value was “partial agonists”.
